Laboratory results reported in patent US20240124504A1, “AROMATIC HETEROCYCLIC COMPOUND, AND PHARMACEUTICAL COMPOSITION AND APPLICATION THEREOF” (GT APEIRON THERAPEUTICS LIMITED, priority 2020, published 2024).

What was measured:
[1] = target: CDK7/cyclinH/MAT1 complex (Homo sapiens, UniProt P50613); assay: In-vitro enzymatic inhibitory activity testing, CDK7 inhibition assay (Caliper EZ Reader II); format: biochemical; settings: CDK7/cyclinH/MAT1 6 nM, 180 min at 27° C.
In short: (§1)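 Enzyme preincubated 10 min with compound, then peptide substrate plus ATP added in 80 mM MES pH 6.5, 10 mM MgCl2 buffer; 180 min at 27 °C, stopped with EDTA.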

[2] = target: CDK2/cyclinE1 complex (Homo sapiens, UniProt P24941); assay: In-vitro enzymatic inhibitory activity testing, CDK2 inhibition assay (Caliper EZ Reader II); format: biochemical; settings: CDK2/cyclinE1 0.5 nM, 180 min at 27° C.
In short: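 CDK2/cyclinE1 (0.5 nM) phosphorylated 5-FAM-CDK7tide (2 μM) in MES buffer pH 6.5 with MgCl2, Tween 20 and BSA. Substrate and product were separated electrophoretically on a Caliper EZ Reader II. IC50 values came from nonlinear dose-response fits.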

[3] = target: CDK9/cyclinT1 complex (Homo sapiens, UniProt P50750); assay: In-vitro enzymatic inhibitory activity testing, CDK9 inhibition assay (Caliper EZ Reader II); format: biochemical; settings: CDK9/cyclinT1 8 nM, 180 min at 27° C.
Sequence of CDK9/cyclinT1 complex (P50750 whole entry, species assumed): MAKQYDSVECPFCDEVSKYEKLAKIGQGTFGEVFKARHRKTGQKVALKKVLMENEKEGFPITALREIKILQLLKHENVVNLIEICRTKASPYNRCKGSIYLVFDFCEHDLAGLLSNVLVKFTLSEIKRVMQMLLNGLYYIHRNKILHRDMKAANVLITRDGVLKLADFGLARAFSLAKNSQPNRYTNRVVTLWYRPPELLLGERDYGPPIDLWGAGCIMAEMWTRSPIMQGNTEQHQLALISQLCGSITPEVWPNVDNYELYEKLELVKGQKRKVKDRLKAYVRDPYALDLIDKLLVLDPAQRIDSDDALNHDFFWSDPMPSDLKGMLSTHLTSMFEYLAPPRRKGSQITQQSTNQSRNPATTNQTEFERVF
Sequence of CDK9/cyclinT1 complex (O60563 whole entry partner, species assumed): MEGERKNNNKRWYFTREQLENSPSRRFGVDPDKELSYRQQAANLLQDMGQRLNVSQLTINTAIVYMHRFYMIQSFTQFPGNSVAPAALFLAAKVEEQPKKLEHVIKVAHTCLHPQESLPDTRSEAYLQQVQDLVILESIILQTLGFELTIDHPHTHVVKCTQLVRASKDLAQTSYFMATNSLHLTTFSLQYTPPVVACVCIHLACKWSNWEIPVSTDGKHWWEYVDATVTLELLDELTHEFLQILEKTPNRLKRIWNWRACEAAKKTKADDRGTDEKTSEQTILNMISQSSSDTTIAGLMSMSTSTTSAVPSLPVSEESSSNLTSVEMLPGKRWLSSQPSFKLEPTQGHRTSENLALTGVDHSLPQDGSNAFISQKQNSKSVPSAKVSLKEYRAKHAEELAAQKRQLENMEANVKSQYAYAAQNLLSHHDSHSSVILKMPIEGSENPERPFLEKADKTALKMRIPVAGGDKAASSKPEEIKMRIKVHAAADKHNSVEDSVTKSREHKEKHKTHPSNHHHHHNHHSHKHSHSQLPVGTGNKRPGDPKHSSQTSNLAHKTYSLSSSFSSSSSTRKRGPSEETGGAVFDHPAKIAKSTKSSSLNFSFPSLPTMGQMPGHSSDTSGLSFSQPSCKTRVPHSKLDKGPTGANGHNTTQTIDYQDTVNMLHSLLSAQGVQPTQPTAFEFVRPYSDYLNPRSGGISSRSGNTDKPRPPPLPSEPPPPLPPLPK
In short: as §1

[4] = Caco-2 membrane permeability and efflux rate; format: in vitro ADME; settings: human, Caco-2, Caco-2, 5 μM; for Papp B→A at 2 h, 5 μM: basal end to top end; for efflux ratio at 2 h, 5 μM: read-out: ER (efflux rate); for Papp A→B at 2 h, 5 μM: top end to basal end
Experimental: The recovered Caco-2 cell suspension was seeded into a […] plate and cultured for 14-18 days. After being cultured for 14 days, the cells were fused and differentiated to be ready for a transport experiment. The Caco-2 cell plate was taken out from the incubator. Stock solutions of a to-be-tested compound and a control compound were formulated with DMSO and diluted with an HBSS (10 mM HEPES, pH 7.4) buffer to a final concentration of 5 μM. A test compound solution and a control drug solution were added to each well (top end) of an insert culture plate, and the HBSS (10 mM HEPES, pH 7.4) buffer was added to each well of a test compound receiving plate (basal end). When measuring the transport rate of the compound from the basal end to the top end, the test compound solution and the control drug solution were added to each well of the receiving plate (basal end), the HBSS (10 mM HEPES, pH 7.4) buffer solution was added to each well (top end) of the insert culture plate for the test compound solution, and incubation was carried out for 2 hours in a CO2 incubator at 37° C. After the transport experiment was completed, vortexing was carried out for 10 minutes at 1000 rpm. After sample quenching at each time point, LC/MS/MS analysis was carried out. A fluorescence value was measured after a two-hour transport experiment, a lucifer yellow solution was added in a transwell chamber (top end), a transport buffer solution was added in the basal end, and incubation was carried out for 30 minutes in the CO2 incubator at 37° C. The solution was taken out directly from the top end and the basal end (using basolateral wells) and transferred to a new 96-well plate. A cell fluorescence value was measured by a microplate reader (to detect membrane integrity), an excitation wavelength was […], and an emission wavelength was […]. All data were calculated by using Microsoft Excel, and a peak area was calculated according to chromatograms. An apparent permeability coefficient (Papp, unit: 10-6, cm/s) and an efflux rate (ER) of the compounds in Caco-2 cells were calculated by the specific concentrations of a receiving end and an administering end.

Sequence of CDK7/cyclinH/MAT1 complex (P50613 whole entry, species assumed): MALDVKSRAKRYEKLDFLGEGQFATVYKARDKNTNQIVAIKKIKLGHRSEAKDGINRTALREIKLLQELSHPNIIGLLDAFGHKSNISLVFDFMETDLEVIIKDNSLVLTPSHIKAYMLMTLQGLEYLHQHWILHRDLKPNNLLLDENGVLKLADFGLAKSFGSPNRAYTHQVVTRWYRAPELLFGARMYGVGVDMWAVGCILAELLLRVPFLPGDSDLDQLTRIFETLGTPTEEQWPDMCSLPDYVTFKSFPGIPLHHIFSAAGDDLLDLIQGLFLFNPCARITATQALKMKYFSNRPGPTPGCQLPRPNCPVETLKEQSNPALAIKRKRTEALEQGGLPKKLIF
Sequence of CDK7/cyclinH/MAT1 complex (P51946 whole entry partner, species assumed): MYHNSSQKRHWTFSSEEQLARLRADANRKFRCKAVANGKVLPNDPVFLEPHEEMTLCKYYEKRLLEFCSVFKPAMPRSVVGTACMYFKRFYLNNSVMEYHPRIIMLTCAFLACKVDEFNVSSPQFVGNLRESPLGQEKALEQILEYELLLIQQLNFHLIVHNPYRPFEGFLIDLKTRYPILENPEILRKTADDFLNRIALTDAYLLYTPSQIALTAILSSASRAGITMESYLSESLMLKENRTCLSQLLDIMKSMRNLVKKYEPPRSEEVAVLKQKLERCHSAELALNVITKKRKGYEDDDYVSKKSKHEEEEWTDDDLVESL
Sequence of CDK7/cyclinH/MAT1 complex (P51948 whole entry partner, species assumed): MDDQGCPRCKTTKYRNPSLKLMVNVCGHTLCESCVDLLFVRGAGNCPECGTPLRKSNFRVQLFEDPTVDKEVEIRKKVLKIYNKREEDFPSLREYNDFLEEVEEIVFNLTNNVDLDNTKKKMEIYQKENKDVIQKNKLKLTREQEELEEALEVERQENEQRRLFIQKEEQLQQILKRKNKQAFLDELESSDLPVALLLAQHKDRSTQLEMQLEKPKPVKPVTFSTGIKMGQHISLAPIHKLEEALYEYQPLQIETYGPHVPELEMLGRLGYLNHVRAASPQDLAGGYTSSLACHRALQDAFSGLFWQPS

CP(C)(=O)c1cccc2c(-c3nc(N[C@@H]4CC[C@H]4O)ncc3C(F)(F)F)c[nH]c12 [Compound 153, (3-(2-(((1R,2R)-2-hydroxycyclobutyl)amino)-5-(trifluoromethyl)pyrimidin-4-yl)-1hydro-indole-7-yl)dimethylphosphine oxide]
IC50 [1]: < 0.02 µM | IC50 [2]: 0.2 to 5 µM | IC50 [3]: > 50 µM | Papp B→A at 2 h, 5 μM [4]: 24.8 ×10⁻⁶ cm/s | efflux ratio at 2 h, 5 μM [4]: 5.94 | Papp A→B at 2 h, 5 μM [4]: 4.17 ×10⁻⁶ cm/s

C[C@@H](CO)Nc1ncc(C(F)(F)F)c(-c2c[nH]c3c(P(C)(C)=O)cccc23)n1 [Compound 82, (S)-(3-(2-((1-hydroxypropyl-2-yl)amino)-5-(trifluoromethyl)pyrimidin-4-yl)-1H-indole-7-yl)dimethylphosphine oxide]
IC50 [1]: < 0.02 µM | IC50 [2]: 0.2 to 5 µM | IC50 [3]: > 50 µM | Papp B→A at 2 h, 5 μM [4]: 23.6 ×10⁻⁶ cm/s | efflux ratio at 2 h, 5 μM [4]: 3.95 | Papp A→B at 2 h, 5 μM [4]: 5.32 ×10⁻⁶ cm/s

CP(C)(=O)c1cccc2c(-c3nc(N[C@H]4CCC[C@@H]4O)ncc3C(F)(F)F)c[nH]c12 [Compound 155, (3-(2-(((1S,2S)-2-hydroxycyclopentyl)amino)-5-(trifluoromethyl)pyrimidin-4-yl)-1hydro-indole-7-yl)dimethylphosphine oxide]
IC50 [1]: < 0.02 µM | IC50 [2]: 0.2 to 5 µM | IC50 [3]: 5 to 50 µM | Papp B→A at 2 h, 5 μM [4]: 24 ×10⁻⁶ cm/s | efflux ratio at 2 h, 5 μM [4]: 4.31 | Papp A→B at 2 h, 5 μM [4]: 5.57 ×10⁻⁶ cm/s

CP(C)(=O)c1cccc2c(-c3nc(NC4(CO)CC4)ncc3C(F)(F)F)c[nH]c12 [Compound 94, (3-(2-((1-(hydroxymethyl)cyclopropyl)amino)-5-(trifluoromethyl)pyrimidin-4-yl)-1H-indole-7-yl)dimethylphosphine oxide]
IC50 [1]: 0.02 to 0.2 µM | IC50 [2]: 5 to 50 µM | IC50 [3]: > 50 µM | Papp B→A at 2 h, 5 μM [4]: 31.4 ×10⁻⁶ cm/s | efflux ratio at 2 h, 5 μM [4]: 12.5 | Papp A→B at 2 h, 5 μM [4]: 2.51 ×10⁻⁶ cm/s

C[C@H](CO)Nc1ncc(C(F)(F)F)c(-c2c[nH]c3c(P(C)(C)=O)cccc23)n1 [Compound 93, (R)-(3-(2-((1-hydroxypropyl-2-yl)amino)-5-(trifluoromethyl)pyrimidin-4-yl)-1H-indole-7-yl)dimethylphosphine oxide]
IC50 [1]: < 0.02 µM | IC50 [2]: 0.2 to 5 µM | IC50 [3]: > 50 µM | Papp B→A at 2 h, 5 μM [4]: 27 ×10⁻⁶ cm/s | efflux ratio at 2 h, 5 μM [4]: 7.64 | Papp A→B at 2 h, 5 μM [4]: 3.53 ×10⁻⁶ cm/s

CP(C)(=O)c1cccc2c(-c3nc(NCCO)ncc3C(F)(F)F)c[nH]c12 [Compound 97, (3-(2-((2-hydroxyethyl)amino)-5-(trifluoromethyl)pyrimidin-4-yl)-1H-indole-7-yl)dimethylphosphine oxide]
IC50 [1]: < 0.02 µM | IC50 [2]: 0.2 to 5 µM | IC50 [3]: > 50 µM | Papp B→A at 2 h, 5 μM [4]: 32.3 ×10⁻⁶ cm/s | efflux ratio at 2 h, 5 μM [4]: 20.8 | Papp A→B at 2 h, 5 μM [4]: 1.55 ×10⁻⁶ cm/s

CP(C)(=O)c1cccc2c(-c3nc(N[C@@H]4CCC[C@H]4O)ncc3C(F)(F)F)c[nH]c12 [Compound 156]
IC50 [1]: 0.02 to 0.2 µM | IC50 [2]: 5 to 50 µM | IC50 [3]: 5 to 50 µM | Papp B→A at 2 h, 5 μM [4]: 20.6 ×10⁻⁶ cm/s | efflux ratio at 2 h, 5 μM [4]: 3.87 | Papp A→B at 2 h, 5 μM [4]: 5.32 ×10⁻⁶ cm/s

CP(C)(=O)c1cccc2c(-c3nc(N[C@H]4CC[C@H](O)C4)ncc3C(F)(F)F)c[nH]c12 [Compound 83]
IC50 [1]: < 0.02 µM | IC50 [2]: 0.2 to 5 µM | IC50 [3]: 5 to 50 µM | Papp B→A at 2 h, 5 μM [4]: 32.4 ×10⁻⁶ cm/s | efflux ratio at 2 h, 5 μM [4]: 16.3 | Papp A→B at 2 h, 5 μM [4]: 1.99 ×10⁻⁶ cm/s

CC1(C)COCC(Nc2ncc(C(F)(F)F)c(-c3c[nH]c4c(P(C)(C)=O)cccc34)n2)CN1 (single isomer, unassigned) [Compound 91, (3-(2-((3,3-dimethyl-1,4-oxazepan-6-yl)amino)-5-(trifluoromethyl)pyrimidin-4-yl)-1H-indole-7-yl)dimethylphosphine oxide]
IC50 [1]: < 0.02 µM | IC50 [2]: 5 to 50 µM | IC50 [3]: > 50 µM | Papp B→A at 2 h, 5 μM [4]: 27.3 ×10⁻⁶ cm/s | efflux ratio at 2 h, 5 μM [4]: 10.3 | Papp A→B at 2 h, 5 μM [4]: 2.64 ×10⁻⁶ cm/s

CP(C)(=O)c1cccc2c(-c3nc(NCCCO)ncc3C(F)(F)F)c[nH]c12 [Compound 89, (3-(2-((3-hydroxypropyl)amino)-5-(trifluoromethyl)pyrimidin-4-yl)-1H-indole-7-yl)dimethylphosphine oxide]
IC50 [1]: < 0.02 µM | IC50 [2]: 0.2 to 5 µM | IC50 [3]: > 50 µM | Papp B→A at 2 h, 5 μM [4]: 30.6 ×10⁻⁶ cm/s | efflux ratio at 2 h, 5 μM [4]: 14.3 | Papp A→B at 2 h, 5 μM [4]: 2.13 ×10⁻⁶ cm/s

CN(C)[C@H]1CC[C@H](Nc2ncc(C(F)(F)F)c(-c3c[nH]c4c(P(C)(C)=O)cccc34)n2)C1 [Compound 137, (3-(2-(((1S,3S)-3-(dimethylamino)cyclopentyl)amino)-5-(trifluoromethyl)pyrimidin-4-yl)-1H-indole-7-yl)dimethylphosphine oxide]
IC50 [1]: < 0.02 µM | IC50 [2]: 0.2 to 5 µM | IC50 [3]: 5 to 50 µM | Papp B→A at 2 h, 5 μM [4]: 34.6 ×10⁻⁶ cm/s | efflux ratio at 2 h, 5 μM [4]: 12.4 | Papp A→B at 2 h, 5 μM [4]: 2.79 ×10⁻⁶ cm/s

C[C@@H](CO)Nc1ncc(C(F)(F)F)c(-c2c[nH]c3c(P(C)(C)=O)c(F)ccc23)n1 [Compound 195]
IC50 [1]: < 0.02 µM | IC50 [2]: 0.2 to 5 µM | IC50 [3]: > 50 µM | Papp B→A at 2 h, 5 μM [4]: 24.4 ×10⁻⁶ cm/s | efflux ratio at 2 h, 5 μM [4]: 2.36 | Papp A→B at 2 h, 5 μM [4]: 10.3 ×10⁻⁶ cm/s

CP(C)(=O)c1cccc2c(-c3nc(N[C@H]4COC[C@@H]4O)ncc3C(F)(F)F)c[nH]c12 [Compound 87]
IC50 [1]: < 0.02 µM | IC50 [2]: 0.2 to 5 µM | IC50 [3]: > 50 µM | Papp B→A at 2 h, 5 μM [4]: 25.1 ×10⁻⁶ cm/s | efflux ratio at 2 h, 5 μM [4]: 37.1 | Papp A→B at 2 h, 5 μM [4]: 0.68 ×10⁻⁶ cm/s

CP(C)(=O)c1cccc2c(-c3nc(NC4(CO)CCOC4)ncc3C(F)(F)F)c[nH]c12 (single isomer, unassigned) [Compound 118]
IC50 [1]: < 0.02 µM | IC50 [2]: 5 to 50 µM | IC50 [3]: > 50 µM | Papp B→A at 2 h, 5 μM [4]: 33.8 ×10⁻⁶ cm/s | efflux ratio at 2 h, 5 μM [4]: 16 | Papp A→B at 2 h, 5 μM [4]: 2.11 ×10⁻⁶ cm/s

CP(C)(=O)c1cccc2c(-c3nc(NC[C@H]4C[C@](C)(O)C4)ncc3C(F)(F)F)c[nH]c12 [Compound 127, (3-(2-(((trans-3-hydroxy-3-methylcyclobutyl)methyl)amino)-5-(trifluoromethyl)pyrimidin-4-yl)-1H-indole-7-yl)dimethylphosphine oxide]
IC50 [1]: < 0.02 µM | IC50 [2]: 0.2 to 5 µM | IC50 [3]: > 50 µM | Papp B→A at 2 h, 5 μM [4]: 22.4 ×10⁻⁶ cm/s | efflux ratio at 2 h, 5 μM [4]: 5.86 | Papp A→B at 2 h, 5 μM [4]: 3.82 ×10⁻⁶ cm/s

C[C@@H](CO)Nc1ncc(C(F)(F)F)c(-c2c[nH]c3c(P(C)(C)=O)c(C#N)ccc23)n1 [Compound 79, (S)-7-(dimethylphosphoryl)-3-(2-((1-hydroxy-propan-2-yl)amino)-5-(trifluoromethyl)pyrimidin-4-yl)-1H-indole-6-carbonitrile]
IC50 [1]: < 0.02 µM | IC50 [2]: 0.2 to 5 µM | IC50 [3]: > 50 µM | Papp B→A at 2 h, 5 μM [4]: 22.3 ×10⁻⁶ cm/s | efflux ratio at 2 h, 5 μM [4]: 4.38 | Papp A→B at 2 h, 5 μM [4]: 5.1 ×10⁻⁶ cm/s
